Conditions: 293.15 K, Liquid, Vibrating tube method

CCCCCCCCCC [decane]
Conditions	mass density [kg/m3]
6746 kPa	735.1
6773 kPa	735
6794 kPa	734.9
6816 kPa	735
6848 kPa	735
6876 kPa	735
6897 kPa	735
6922 kPa	735.2
6945 kPa	735.2
6978 kPa	735.2
7001 kPa	735
7028 kPa	735.2
7050 kPa	735.3
7069 kPa	735.2
7097 kPa	735.2
7122 kPa	735.3
7137 kPa	735.2
7168 kPa	735.4
7187 kPa	735.3
7209 kPa	735.3
7232 kPa	735.3
7257 kPa	735.4
7276 kPa	735.4
7295 kPa	735.4
7318 kPa	735.4
7338 kPa	735.4
7360 kPa	735.4
7390 kPa	735.4
7414 kPa	735.5
7438 kPa	735.6
7460 kPa	735.5
7485 kPa	735.6
7500 kPa	735.6
7514 kPa	735.6
7532 kPa	735.5
7544 kPa	735.6
7559 kPa	735.5
7573 kPa	735.6
7586 kPa	735.6
7603 kPa	735.6
7621 kPa	735.7
7636 kPa	735.6
7649 kPa	735.6
7665 kPa	735.7
7685 kPa	735.6
7701 kPa	735.6
7716 kPa	735.6
7732 kPa	735.7
7748 kPa	735.7
7769 kPa	735.7
7789 kPa	735.7
7803 kPa	735.8
7824 kPa	735.8
7837 kPa	735.8
7854 kPa	735.8
7873 kPa	735.8
7889 kPa	735.8
7910 kPa	735.9
7929 kPa	735.9
7943 kPa	735.9
7963 kPa	735.9
7982 kPa	735.8
7997 kPa	736
8013 kPa	736.1
8030 kPa	735.9
8048 kPa	736
8065 kPa	736
8080 kPa	736
8102 kPa	735.9
8114 kPa	735.9
8137 kPa	736.1
8160 kPa	736
8178 kPa	736.1
8196 kPa	736
8213 kPa	736.1
8234 kPa	736.1
8249 kPa	736.1
8265 kPa	736.1
8289 kPa	736.2
8309 kPa	736.1
8324 kPa	736.2
8342 kPa	736.2
8357 kPa	736.1
8373 kPa	736.2
8396 kPa	736.2
8414 kPa	736.2
8435 kPa	736.2
8456 kPa	736.2
8469 kPa	736.3
8490 kPa	736.2
8512 kPa	736.2
8530 kPa	736.2
8552 kPa	736.3
8577 kPa	736.3
8591 kPa	736.3
8615 kPa	736.4
8638 kPa	736.4
8657 kPa	736.4
8679 kPa	736.3
8696 kPa	736.4
8715 kPa	736.5
8735 kPa	736.4
8752 kPa	736.4
8777 kPa	736.5
8801 kPa	736.5
8818 kPa	736.6
8844 kPa	736.5
8867 kPa	736.5
8885 kPa	736.5
8905 kPa	736.6
8925 kPa	736.5
8946 kPa	736.6
8967 kPa	736.5
8985 kPa	736.6
9006 kPa	736.6
9033 kPa	736.6
9054 kPa	736.6
9077 kPa	736.8
9098 kPa	736.6
9119 kPa	736.7
9137 kPa	736.8
9159 kPa	736.8
9178 kPa	736.8
9206 kPa	736.8
9235 kPa	736.7
9251 kPa	736.8
9280 kPa	736.9
9302 kPa	736.8
9324 kPa	737
9350 kPa	736.9
9370 kPa	736.9
9397 kPa	737
9426 kPa	736.9
9446 kPa	736.9
9469 kPa	736.9
9492 kPa	736.9
9512 kPa	737
9533 kPa	737
9562 kPa	737.1
9590 kPa	737
9615 kPa	737.1
9642 kPa	737.1
9666 kPa	737.1
9687 kPa	737.2
9718 kPa	737.2
9743 kPa	737.1
9767 kPa	737.3
9799 kPa	737.3
9821 kPa	737.3
9853 kPa	737.3
9871 kPa	737.2
9897 kPa	737.3
9920 kPa	737.3
9953 kPa	737.3
9986 kPa	737.4
10009 kPa	737.4
10042 kPa	737.4
10073 kPa	737.4
10096 kPa	737.4
10134 kPa	737.4
10165 kPa	737.6
10193 kPa	737.5
10218 kPa	737.5
10248 kPa	737.6
10278 kPa	737.6
10298 kPa	737.6
10313 kPa	737.6
10327 kPa	737.6
10344 kPa	737.6
10358 kPa	737.7
10372 kPa	737.7
10389 kPa	737.6
10406 kPa	737.7
10428 kPa	737.8
10443 kPa	737.7
10461 kPa	737.8
10481 kPa	737.6
10498 kPa	737.7
10516 kPa	737.8
10533 kPa	737.7
10550 kPa	737.8
10570 kPa	737.8
10587 kPa	737.8
10602 kPa	737.7
10625 kPa	737.8
10645 kPa	737.9
10661 kPa	737.8
10679 kPa	737.8
10697 kPa	737.9
10715 kPa	737.9
10735 kPa	737.9
10753 kPa	737.9
10768 kPa	737.8
10787 kPa	737.9
10803 kPa	737.8
10824 kPa	738
10842 kPa	738
10860 kPa	737.9
10879 kPa	738.1
10892 kPa	738
10913 kPa	738
10929 kPa	737.9
10950 kPa	738.1
10966 kPa	738
10985 kPa	738.1
11001 kPa	738.1
11023 kPa	738.1
11045 kPa	738.2
11061 kPa	738.1
11081 kPa	738.1
11094 kPa	738.1
11111 kPa	738.1
11131 kPa	738.2
11156 kPa	738.3
11170 kPa	738.1
11193 kPa	738.3
11210 kPa	738.3
11235 kPa	738.2
11255 kPa	738.1
11281 kPa	738.2
11304 kPa	738.2
11324 kPa	738.3
11348 kPa	738.3
11366 kPa	738.3
11387 kPa	738.4
11408 kPa	738.3
11425 kPa	738.4
11443 kPa	738.3
11460 kPa	738.4
11479 kPa	738.4
11492 kPa	738.4
11511 kPa	738.5
11524 kPa	738.4
11543 kPa	738.5
11560 kPa	738.4
11574 kPa	738.5
11596 kPa	738.5
11613 kPa	738.5
11628 kPa	738.4
11645 kPa	738.6
11664 kPa	738.5
11684 kPa	738.6
11701 kPa	738.6
11721 kPa	738.6
11740 kPa	738.6
11758 kPa	738.6
11775 kPa	738.6
11793 kPa	738.6
11810 kPa	738.6
11828 kPa	738.7
11845 kPa	738.7
11861 kPa	738.7
11888 kPa	738.6
11904 kPa	738.7
11927 kPa	738.7
11950 kPa	738.8
11966 kPa	738.8
11987 kPa	738.8
12010 kPa	738.7
12028 kPa	738.8
12049 kPa	738.7
12070 kPa	738.9
12089 kPa	738.8
12110 kPa	738.9
12131 kPa	738.8
12152 kPa	738.8
12170 kPa	738.8
12187 kPa	739
12201 kPa	738.9
12219 kPa	738.9
12238 kPa	738.9
12263 kPa	739.2
12285 kPa	739
12301 kPa	739

Reference: the NIST ThermoML archive (doi:10.1021/je800110r)
